# Source: patent US11401253B2, “16-methyl-oxacyclohexadecan-2-one and 16-methyl-azacyclohexadecan-2-one derivatives as antimicrobial agents” (THE UNIVERSITY OF MONTANA, priority 2017, dated 2022)
# “And” between values parts separate entries of the source, which are not always exact repeats. Equal entries are not always repeated. “Also recorded” adds a separate entry of the source.
# Legend:
# [1] = tested on: Staphylococcus aureus (13709); experiment: Antibiotic testing (MIC), S. aureus 13709; assay type: cell-based; conditions: growth inhibition ≥90% relative to drug-free controls, read-out: minimum inhibitory concentration, Staphylococcus aureus (13709)
# [2] = tested on: Streptococcus pyogenes; experiment: Antibiotic testing (MIC), Streptococcus pyogenes; assay type: cell-based; conditions: growth inhibition ≥90%, read-out: minimum inhibitory concentration, Streptococcus pyogenes
# [3] = tested on: Candida glabrata; experiment: Antibiotic testing (MIC), Candida glabrata; assay type: cell-based; conditions: Nakaseomyces glabratus; growth inhibition ≥90%; read-out: minimum inhibitory concentration, Candida glabrata
# [4] = tested on: Bacillus subtilis; experiment: Antibiotic testing (MIC), Bacillus subtilis; assay type: cell-based; conditions: growth inhibition ≥90%, read-out: minimum inhibitory concentration, Bacillus subtilis
# [5] = tested on: C. albicans; experiment: Antibiotic testing (MIC), C. albicans; assay type: cell-based; conditions: Candida albicans; growth inhibition ≥90%; read-out: minimum inhibitory concentration, C. albicans
# [6] = tested on: B. anthracis; experiment: microbe, parasite or virus in culture; assay type: cell-based; conditions: Bacillus anthracis, read-out: minimum inhibitory concentration, B. anthracis
# [7] = tested on: Enterococcus faecalis; experiment: Antibiotic testing (MIC), Enterococcus faecalis; assay type: cell-based; conditions: growth inhibition ≥90%, read-out: minimum inhibitory concentration, Enterococcus faecalis
# [8] = tested on: S. aureus CAIRD116; experiment: Antibiotic testing, methicillin-resistant S. aureus CAIRD116; assay type: cell-based; conditions: Staphylococcus aureus, CAIRD116; methicillin-resistant strain
# Description: (§1) Both the methyl ester and the diacetate derivatives of BPL 76 slightly less but still very strong activity against the same four MRSA strains (Table 11). The activities of compounds BPL 76 and BPL 81 were compared to several known antibiotics against three methicillin-resistant strains of S. aureus [FIG. 6, comparative data provided by Hartford Hospital, Center for Anti-Infective Research and Development (CAIRD)].
# [9] = tested on: S. aureus CAIRD142; experiment: Antibiotic testing, methicillin-resistant S. aureus CAIRD142; assay type: cell-based; conditions: Staphylococcus aureus, CAIRD142; methicillin-resistant strain
# Description: as §1
# [10] = tested on: S. aureus CAIRD148; experiment: Antibiotic testing, methicillin-resistant S. aureus CAIRD148; assay type: cell-based; conditions: Staphylococcus aureus, CAIRD148; methicillin-resistant strain
# Description: as §1
# [11] = tested on: K. pneumoniae (10031); experiment: Antibiotic testing (MIC), gram negative K. pneumoniae; assay type: cell-based
# Experimental: (§2) None of this collection of compounds were active against Gram-negative bacteria
# (§3) Additionally, BPL 76 and derivatives were tested against a panel of gram negative bacteria including K. pneumonia, P. aeruginosa and E. coli (Table 12).
# [12] = tested on: P. aeruginosa; experiment: Antibiotic testing (MIC), gram negative P. aeruginosa; assay type: cell-based; conditions: Pseudomonas aeruginosa; read-out: MIC, P. aeruginosa
# Experimental: as §2, §3
# [13] = tested on: E. coli (25922); experiment: Antibiotic testing (MIC), gram negative E. coli; assay type: cell-based
# Experimental: as §2, §3
# [14] = tested on: non-replicating persistence Mycobacterium tuberculosis (NRP-TB); experiment: Low oxygen recovery assay (LORA), non-replicating persistence Mtb; assay type: cell-based; conditions: non-replicating persistence, hypoxic conditions
# [15] = tested on: Vero cell; experiment: Cytotoxicity (MTS), Vero cells; assay type: cell-based, monkey; conditions: Primates, 72 hours exposure
# [16] = tested on: HepG2; experiment: Cytotoxicity (MTS), HepG2 cells; assay type: cell-based; conditions: Homo sapiens, 72 hours exposure
# [17] = tested on: J774; experiment: Cytotoxicity (MTS), J774 cells; assay type: cell-based, murine; conditions: Mus musculus, 72 hours exposure
# [18] = tested on: primary human peripheral blood mononuclear cells (PBMCs); experiment: Cell death in primary PBMCs; assay type: cell-based; conditions: highest concentration tested, 500 μg/ml
# Experimental: Additionally the BPL76 compound was tested against primary human peripheral blood mononuclear cells (PBMCs) and induced very little cell death, with only up to 60% death induced at the highest concentration tested, 500 μg/ml (not shown).
# [19] = tested on: GFP synthesis; experiment: Cell-free translation assay with GFP reporter; assay type: biochemical; conditions: 50 μM and 250 μM, 37° C., readings for 2 hr
# Experimental: Further assessment of the effect of BPL76 on protein translation was done using a cell-free translation assay. The plasmid pY71-sfGFP^55 (5 ng) was translated in the PUREexpress in vitro protein synthesis system (New England Biolabs). The final concentrations of erythromycin, josamycin and tylosin in the translation reactions were 50 μM. The reactions were incubated at 37° C. and fluorescence readings (excitation: 488 nm, emission, 520 nm) were taken every 20 min for 2 hr.
# [20] = tested on: Gram-positive bacteria; experiment: Antibiotic panel, Gram-positive bacteria; assay type: cell-based; conditions: 1 μM-1 mM/well
# Description: as §2
# [21] = Bactericidal activity (therapeutic index statement); assay type: cell-based
# [22] = tested on: Vero, HepG2 and J774 cells; experiment: Cytotoxicity, mammalian cell lines (summary statement); assay type: cell-based
# Experimental: Cytotoxicity for Vero, HepG2 and J774 cells were determined following 72 hours exposure to BPL76 and analogs. Cell viability was assessed on the basis of cellular conversion of MTS dye into a soluble formazan product using the Promega CellTiter 96 Aqueous Non-Radioactive Cell Proliferation Assay. After incubation at 37° C. for 72 h, medium was removed and monolayers were washed twice with 100 μl of warm Hanks' balanced salt solution (HBSS). One hundred microliters of warm medium and 20 μl of freshly made MTS-PMS [3-(4,5-dimethylthiazol-2-yl)-5-(3-carboxymethoxyphenyl)-2-(4-sulfophenyl)-2H-tetrazolium and […]](100:20) (Promega) were added to each well, plates were incubated for 3 h, and absorbance was determined at 490 nm. Viability was assessed on the basis of cellular conversion of MTS dye into a soluble formazan product using the Promega CellTiter 96 Aqueous Non-Radioactive Cell Proliferation Assay as described in Falzari K, Zhu Z, Pan D, Liu H, Hongmanee P, et al. (2005). In vitro and in vivo activities of macrolide derivatives against Mycobacterium tuberculosis were determined as described in Ekins, S, Reynolds, R C, Franzblau, S G, et al. Enhancing Hit Identification in Mycobacterium tuberculosis Drug Discovery Using Validated Dual-Event Bayesian Models PLOS ONE (2013) 8:5, e63240. […]
# [23] = tested on: Mycobacterium tuberculosis
# [24] = tested on: Mycobacterium tuberculosis; experiment: microbe, parasite or virus in culture; conditions: read-out: MIC, MABA
smiles,measurement,setting,value
"C[C@@H]1CCCCCCCCC[C@H](O)C(=O)C[C@@H](SC[C@@H](O)C(=O)O)C(=O)O1 [BPL 76, (S)-2-hydroxy-3-(((3R,6S,16R)-6-hydroxy-16-methyl-2,5-dioxooxacyclohexadecan-3-yl)thio)propanoic acid]",MIC,[1],1 µg/mL
same,MIC,[2],3 µg/mL
same,MIC,[3],6 µg/mL
same,MIC,[4],13 µg/mL
same,MIC,[5],26 µg/mL
same,MIC,[6],3 µg/mL
same,MIC,[7],13 µg/mL
same,MIC,[8],1 µg/mL
same,MIC,[9],2 µg/mL
same,MIC,[10],1 µg/mL
same,activity against K. pneumonia (in words),[11],weakly active
same,MIC,"[11]; Klebsiella pneumoniae, read-out: MIC, K. pneumoniae (10031)",1000 µM and 405 µg/mL
same,MIC,[12],> 1000 µM
same,activity against E. coli (in words),[13],weakly active
same,MIC,"[13]; Escherichia coli, read-out: MIC, E. coli (25922)",1000 µM and 405 µg/mL
same,MIC,"[14]; Mycobacterium tuberculosis, read-out: MIC, LORA",24 µg/mL
same,"MIC, LORA",[14],~24 µg/mL
same,IC50,[15],61.5 µg/mL
same,IC50,[16],64.8 µg/mL
same,IC50,[17],16.8 µg/mL
same,cell death induced in PBMCs,[18],up to 60%
same,effect on GFP synthesis and corresponding fluorescence,[19],no effect at either concentration; also recorded: lack of inhibition
same,activity against Gram-positive bacteria,[20],strongest activity
same,efficacious concentration to induce bactericidal activity,[21],~1 µg/mL
same,mammalian toxicity concentration,[22],~60 µg/mL
same,"MIC, MABA",[23],~25 µg/mL
same,fold less active against Mtb than against MRSA,[23],25 fold
same,times less potent than rifampicin against Mtb,[23],100 ×
same,MIC,[24],25 µg/mL
